The subject of experiment [1] is G. violaceus P1 stem-loop used for crystallization (RNA, riboswitch, 5-bromocytidine at 17) GGUGGGGACGACCCCACC
The experiment in a line: X-ray crystallography, 1.54 Å. As to conditions: 100 mM KCl, 2 mM MgCl2 (RNA folding); ligand soaked into ligand-free crystals; 5 mM HEPES pH 7.6 (RNA folding).

Experiment [2] relates to GVP1 (guanidine-II riboswitch P1 stem-loop) (RNA, riboswitch) GGUGGGGACGACCCCACC
The experiment in a line: ITC. As to conditions: 100 mM KCl, 10 mM MgCl2; 40 mM HEPES pH 7.2, 298 K; one-set-of-sites fit.

For experiment [3], the system named is GVP2 (guanidine-II riboswitch P2 stem-loop) (RNA, riboswitch) GCGGGGACGACCCCGC
The experiment in a line: ITC. The following applies: 100 mM KCl, 10 mM MgCl2; 40 mM HEPES pH 7.2, 298 K; one-set-of-sites fit.

The test system of experiment [4] is GVP1P2 (complete guanidine-II riboswitch) (RNA, riboswitch) GGUGAGGACGACCUCACCCUUCGCAAAGUUUCGCGGGGACGACCCCGC
In words: ITC. The following applies: 100 mM KCl, 10 mM MgCl2; 40 mM HEPES pH 7.2, 298 K; one-set-of-sites fit.

Experiment [5] concerns G. violaceus P1 stem-loop used for crystallization (RNA, riboswitch, 5-bromocytidine at 17) GGUGGGGACGACCCCACC
The experiment in a line: X-ray crystallography, 1.41 Å. As to conditions: 100 mM KCl, 2 mM MgCl2 (RNA folding); ligand soaked into ligand-free crystals; 5 mM HEPES pH 7.6 (RNA folding).

For experiment [6] the test system is unchanged. The experiment in a line: X-ray crystallography, 1.66 Å. The following applies: 100 mM KCl, 2 mM MgCl2 (RNA folding); ligand soaked into ligand-free crystals; 5 mM HEPES pH 7.6 (RNA folding).

Structures are written as SMILES.

The term Kd denotes the free concentration of one partner at which half of the binding sites on the other are occupied at equilibrium, for simple one-to-one binding. Lower therefore signals a tighter complex.

For the compound `CCNC(=N)N`, the binding entry in experiment [1] is “yes”.

On to `N=C(N)N`, for which the Kd in experiment [2] worked out at 68 ± 6 µM; in experiment [3], 66 ± 8 µM; in experiment [4] it was 33 ± 4 µM.

Take `N=C(N)NCCCCCNC(=N)N`: in experiment [4], the dissociation constant Kd amounted to 5.1 ± 0.8 µM. Besides, the binding entry in experiment [5] is recorded as “yes”.

In the case of `N=C(N)NCCCCNC(=N)N`, the Kd is reported as 4.7 ± 0.2 µM in experiment [2], 5.9 ± 4 µM in experiment [3] and 2.2 ± 0.5 µM in experiment [4]. The binding result in experiment [6] is reported as “yes”.

Values taken from PMC6426286 (2019).
